Test results as given in publication PMC4413184, “Seco-Taondiol, an Unusual Meroterpenoid from the Chilean Seaweed Stypopodium flabelliforme and Its Gastroprotective Effect in Mouse Model” (Marine Drugs, 2015).
Entries after “also recorded” stand apart in the source; their conditions may differ. Marks after values point to notes of the source that are not given here.

Columns and labels:
[1] = test system: HCl/EtOH-induced gastric lesions in NEM-pretreated mice; assay: HCl/EtOH-induced gastric lesions in N-ethylmaleimide (NEM)-pretreated mice; type: in vivo; settings: NEM 10 mg/kg s.c. 30 min before, 1a 35 mg/kg, 3a 40 mg/kg oral
Procedure: (§1) To investigate the involvement of sulfhydryl compounds (SHs) in the gastroprotective effect of 1a and 3a, NEM s.c. (10 mg/kg, an SH blocker was dissolved in saline) was injected 30 min before administration of 1a, 3a or vehicle (NEM-treated). Fifty min after oral administration of 1a (35 mg/kg), 3a (40 mg/kg) or vehicle, all groups were orally treated with 0.2 mL of a solution containing 0.3 M HCl/60% ethanol (HCl/EtOH) for gastric lesion induction. Animals were sacrificed 1 h after the administration of HCl/EtOH, and the stomachs were excised and inflated by injection of saline (1 mL). The gastric mucosal lesions were induced and the length of gastric lesions was measured as described above.

[2] = test system: HCl/EtOH-induced gastric lesions in mice; assay: HCl/EtOH-induced gastric lesions model in mice; type: in vivo; settings: for gastroprotective activity (in words): HCl/EtOH-induced gastric lesions model in mice; for Lesion Index (mm) / % Lesion Reduction / inhibition of the appearance of gastric mucosal lesions: mice; for Lesion Index (mm) / % Lesion Reduction: oral, title: 30 mg/kg, method: meroditerpenoids 40 mg/kg, lansoprazole 30 mg/kg; for Lesion Index (mm): mean ± sd, n = 7; for % Lesion Reduction: versus control; for inhibition of the appearance of gastric mucosal lesions: oral administration at 40 mg/kg
Procedure: The gastroprotective activity of the compounds 4a–5a, and 9, 11 was assessed in the HCl/EtOH-induced lesion model as described previously. Mice were randomly distributed into groups of seven animals each and fasted for 12 h with free access to water prior to the experiment. Fifty min after oral administration of the meroditerpenoids (40 mg/kg), lansoprazole (30 mg/kg) or 1% Tween 80 (10 mL/kg), all groups were orally treated with 0.2 mL of a solution containing 0.3 M HCl/60% ethanol (HCl/EtOH) for gastric lesion induction. Animals were sacrificed 1 h after the administration of HCl/EtOH, and the stomachs were excised and inflated by injection of saline (1 mL). The ulcerated stomachs were fixed in 5% formalin for 30 min and opened along the greater curvature. […] The length (mm) of each lesion was measured, and the lesion index was expressed as the sum of the length of all lesions.

[3] = test system: HCl/EtOH-induced gastric lesions in indomethacin-pretreated mice; assay: HCl/EtOH-induced gastric lesions in indomethacin-pretreated mice; type: in vivo; settings: indomethacin 30 mg/kg s.c. 30 min before, 1a 35 mg/kg, 3a 40 mg/kg oral
Procedure: as §1, with “endogenous prostaglandins” for “sulfhydryl compounds (SHs)”, “indomethacin” for “NEM”, “(30” for “(10”, “inhibitor of the prostaglandin synthesis” for “SH blocker”, “5% NaHCO3)” for “saline)”, “(IND-treated).” for “(NEM-treated).”

[4] = Cytotoxicity MTT assay, AGS cells; type: cell-based, human; settings: human, AGS cells (human gastric epithelial cells), 48 h incubation
Procedure: (§2) The cytotoxic assay expressed as cell viability was conducted using MTT assay method. Cells at a density of 3 × 10^4 of MRC fibroblasts or AGS cells were plated in 96-well culture dishes. Compounds were assayed at concentrations ranging from 0 up to 500 μM. Incubated at 37 °C in humidified CO2 incubator for 24 h. After incubation, various concentrations in DMSO solvent of the compounds were added. Each compound was tested in quadruplicate and repeated three times. After 48 h incubation, assay was stop by adding MTT reagent (3-(4,5dimethylthiazol-2-yl)-2,5-diphenyltetrazolium bromide) and the incubation continue for next 4 h before the addition of MTT stop solution containing sodium dodecyl sulphate (SDS), the incubation continue for next 24 h. optical density was measured using microplate reader at 550 nm. IC50 value obtained from the plotted graph between percentage live cells compared to control.

[5] = Cytotoxicity MTT assay, fibroblasts; type: cell-based, human; settings: human, MRC fibroblasts, 48 h incubation
Procedure: as §2

[6] = test system: HCl/EtOH-induced gastric lesions in L-NAME-pretreated mice; assay: HCl/EtOH-induced gastric lesions in L-NAME-pretreated mice; type: in vivo; settings: L-NAME 70 mg/kg i.p. 30 min before, 1a 35 mg/kg, 3a 40 mg/kg oral
Procedure: as §1, with “endogenous nitric oxide (NO)” for “sulfhydryl compounds (SHs)”, “L-NAME i.p. (70” for “NEM s.c. (10”, “inhibitor of NO synthase” for “SH blocker”, “(L-NAME-treated).” for “(NEM-treated).”

[7] = test system: HCl/EtOH-induced gastric lesions in mice; design: method as in PMID 21922901; settings: cited from earlier work
[8] = test system: HCl/EtOH-induced gastric lesions in RR-pretreated mice; assay: HCl/EtOH-induced gastric lesions in ruthenium red (RR)-pretreated mice; type: in vivo; settings: RR 3.5 mg/kg s.c. 30 min before; 1a 35 mg/kg, 3a 40 mg/kg oral
Procedure: as §1, with “vanilloid receptor” for “sulfhydryl compounds (SHs)”, “RR” for “NEM”, “(3.5” for “(10”, “a vanilloid receptor antagonist” for “an SH blocker”, “(RR-treated).” for “(NEM-treated).”

[9] = test system: human epithelial gastric cells (AGS); assay: Cytotoxicity MTT assay, AGS cells; type: cell-based; settings: 48 h incubation
Procedure: as §2

[10] = test system: human fibroblast (MRC fibroblasts); assay: Cytotoxicity MTT assay, fibroblasts; type: cell-based; settings: 48 h incubation
Procedure: as §2

Structure (SMILES)	gastroprotective activity (in words) [2]	Lesion Index (mm) [2] [mm]	% Lesion Reduction [2]	IC50 at 48 h [4] [µM]	IC50 at 48 h [5] [µM]	further results
CC(C)=CCC/C(C)=C/CC/C(C)=C/CC[C@]1(C)C=Cc2cc(O)cc(C)c2O1 [Compound 1a, sargaol]	exhibited gastroprotective activity	20.0 ± 3.6	52 * %	18 ± 4	12 ± 3	effect of NEM pre-treatment on the gastroprotective effect [1]: reduced; also recorded: reversed significantly; effect of NEM pre-treatment on the gastroprotective effect ([1]; listed as sargaol): attenuated; effect of indomethacin pre-treatment on the gastroprotective effect [3]: reversed significantly; effect of indomethacin pre-treatment on the gastroprotective effect ([3]; listed as sargaol): attenuated; effect of L-NAME pre-treatment on the gastroprotective effect [6]: has not attenuated; gastroprotective activity ED50 [7]: 35 mg/kg; effect of ruthenium red pre-treatment on the gastroprotective effect [8]: did not reduce
Cc1cc(O)cc2c1OC1(C)CCC3C(C)(CCC4C(C)(C)C(O)CCC43C)C1C2 (stereo not drawn) [Compound 5a, isoepitaondiol]	gastroprotective activity in similar way than positive control	9.1 ± 3.6	78 * %	–	–	gastroprotective activity (in words) ([2]; listed as isoepitaondiol): exhibited gastroprotective activity; inhibition of the appearance of gastric mucosal lesions [2]: 78%; IC50 [9]: 42 ± 2 µM; IC50 [10]: 65 ± 3 µM
COc1c(C)cc(OC(C)=O)cc1CC1C(C)CCC2C3(C)CCC(OC(C)=O)C(C)(C)C3=CCC12C (stereo not drawn) [Compound 7, O,C(3)-seco-9-ene-6β-taondiol diacetate]	–	–	–	85 ± 5	102 ± 6	–
CC(=O)Oc1c(Cl)c(C)c2c(c1OC(C)=O)CC1(O2)C(C)CCC2C3(C)CCC(OC(C)=O)C(C)(C)C3CCC21C (stereo not drawn) [Compound 8, 4'-chlorostypotriol triacetate]	–	–	–	11 ± 1	12 ± 1	–
Cc1cc(O)cc2c1OC1(C)CCC3C(C)(CCC4C(C)(C)C(O)CCC43C)C1C2 (stereo not drawn) [Compound 3a, epitaondiol]	exhibited gastroprotective activity	16.7 ± 3.1	60 * %	29 ± 3	–	effect of NEM pre-treatment on the gastroprotective effect [1]: reduced; effect of NEM pre-treatment on the gastroprotective effect ([1]; listed as epitaondiol): reversed significantly; effect of indomethacin pre-treatment on the gastroprotective effect [3]: attenuated; effect of indomethacin pre-treatment on the gastroprotective effect ([3]; listed as epitaondiol): reversed significantly; IC50 [10]: 19 ± 4 µM; effect of L-NAME pre-treatment on the gastroprotective effect [6]: reduced; effect of L-NAME pre-treatment on the gastroprotective effect ([6]; listed as epitaondiol): reversed significantly; gastroprotective activity ED50 [7]: 40 mg/kg; effect of ruthenium red pre-treatment on the gastroprotective effect [8]: did not reduce
CC(=O)Oc1cc(C)c2c(c1OC(C)=O)CC1(O2)C(C)CCC2C3(C)CCC(OC(C)=O)C(C)(C)C3CCC21C (stereo not drawn) [Compound 9, stypotriol triacetate]	inactive	36.4 ± 5.2	12%	14 ± 3	21 ± 5	–
CC(=O)Oc1cc(C)c2c(c1OC(C)=O)CC1(O2)C(C)CCC2C3(C)CCC(=O)C(C)(C)C3CCC21C (stereo not drawn) [Compound 11, 14-ketostypodiol diacetate]	inactive	37.9 ± 7.3	9%	65 ± 4	102 ± 6	–
Cc1cc(O)cc2c1OC1(C2)C(C)CCC2C3(C)CCC(O)C(C)(C)C3CCC21C (stereo not drawn) [Compound 4a, stypodiol]	gastroprotective activity in similar way than positive control	13.0 ± 4.0	69 * %	153 ± 9	215 ± 8	gastroprotective activity (in words) ([2]; listed as stypodiol): exhibited gastroprotective activity; inhibition of the appearance of gastric mucosal lesions [2]: 69%
Cc1c(OCC(F)(F)F)ccnc1C[S+]([O-])c1nc2ccccc2[nH]1 (stereo not drawn) [Lansoprazole, lansoprazole, reference compound]	–	14.1 ± 3.6	66 * %	198 ± 5	392 ± 6	–
